EC50 data for one molecule are collected here from BindingDB's records for doi:10.1021/acs.jmedchem.7b01322 (National Health Research Institutes, 2018).

A short description of this assay: Antagonist activity at CXCR4 in human CCRF-CEM cells assessed as inhibition of CXCL12-induced CXCR4+ cell migration pre-incubated for 10 mins before CXCL12 addition and measured after 2.5 hrs by flow cytometric analysis.

Broadly, the EC50 is the concentration at which the effect is half-maximal. `Cc1cc(NC2CCN(C(=O)CCNCC(=O)O)CC2)nc(NCc2cn(CCCNCCCNC3CCCCC3)nn2)n1`: the EC50 turned out to be 14 nM.
